Test results from patent publication US20070213301A1 (ACHILLION PHARMACEUTICALS, INC., priority 2006, published 2007).

Each molecule was assayed on HCV replicon (assay: HCV replicon replication assay (NPTII ELISA)). Details: Hepatitis C virus, Huh-7, 72 h, inhibition of HCV replicon replication in Huh-7 HCV replicon-containing cells, three days incubation, NPT level by ELISA; read-out: EC50.
Type: cell-based, Hepatitis C virus (Huh-7 cells)
Summary of the method: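 Huh-7 cells carrying a Bartenschlager NPTII (neo) HCV replicon, treated 3 days at 37 °C with compound, generally 6 concentrations from 10 to 0.03 micromolar, in equal DMSO across wells. NPTII level, proportional to replication, read by capture ELISA on methanol:acetone-fixed cells; interferon alpha positive control; toxicity scored visually or by MTS.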

CCCCCOc1ccc(N(C(=O)c2cccnc2)c2nc(-c3nc4ccccc4s3)cs2)cc1C(F)(F)F [Compound 102, N-(4-(benzo[d]thiazol-2-yl)thiazol-2-yl)-N-(4-(pentyloxy)-3-(trifluoromethyl)phenyl)nicotinamide] and CCCCCOc1ccc(N(C(=O)C(OC(C)=O)c2ccccc2)c2nc(-c3cccnc3)cs2)cc1C(F)(F)F (stereo not shown) [Compound 65, 2-oxo-2-((4-(pentyloxy)-3-(trifluoromethyl)phenyl)(4-(pyridin-3-yl)thiazol-2-yl)amino)-1-phenylethyl acetate] cannot be ordered by EC50: under 1 µM for the first, under 1 µM for the second.

CCCCCCCCc1ccc(N(C(C)=O)c2nc(-c3cccnc3)c(F)s2)cc1C(F)(F)F [Compound 175, N-(5-fluoro-4-(pyridin-3-yl)thiazol-2-yl)-N-(4-octyl-3-(trifluoromethyl)phenyl)acetamide] and CCCCCCCCc1ccc(N(C(=O)OCC[N+](C)(C)C)c2nc(-c3cccnc3)c(F)s2)cc1C(F)(F)F [Compound 181] cannot be ordered by EC50: under 1 µM for the first, under 1 µM for the second.

COc1ccc(N(C(N)=O)c2nc(-c3cccnc3)cs2)cc1C(F)(F)F [Compound 84, 1-(4-methoxy-3-(trifluoromethyl)phenyl)-1-(4-(pyridin-3-yl)thiazol-2-yl)urea] and CC(C)COc1ccc(N(C(N)=O)c2nc(-c3cccnc3)cs2)cc1C(F)(F)F [Compound 151, 1-(4-isobutoxy-3-(trifluoromethyl)phenyl)-1-(4-(pyridin-3-yl)thiazol-2-yl)urea] cannot be ordered by EC50: under 1 µM for the first, under 1 µM for the second.

CCCCOc1ccc(N(C(N)=O)c2nc(-c3ccncc3)cs2)cc1C(F)(F)F [Compound 137, 1-(4-butoxy-3-(trifluoromethyl)phenyl)-1-(4-(pyridin-4-yl)thiazol-2-yl)urea] and CCCCCOc1ccc(N(C(N)=O)c2nc(-c3cccnc3)cs2)cc1C(F)(F)F [Compound 49, 1-(4-(pentyloxy)-3-(trifluoromethyl)phenyl)-1-(4-(pyridin-3-yl)thiazol-2-yl)urea] cannot be ordered by EC50: under 1 µM for the first, under 1 µM for the second.

CCCCCOc1ccc(N(C(=O)CC(=O)OC)c2nc(-c3ccc(F)cc3)cs2)cc1C(F)(F)F [Compound 43, methyl 3-((4-(4-fluorophenyl)thiazol-2-yl)(4-(pentyloxy)-3-(trifluoromethyl)phenyl)amino)-3-oxopropanoate] and CCCCCOc1ccc(N(C(C)=O)c2nc(-c3ccc(F)cc3)cs2)cc1C(F)(F)F [Compound 1, N-(4-(4-fluorophenyl)thiazol-2-yl)-N-(4-(pentyloxy)-3-(trifluoromethyl)phenyl)acetamide] cannot be ordered by EC50: under 1 µM for the first, under 1 µM for the second.

Compared with CCCCCOc1ccc(N(C(=O)C2CC2)c2nc(-c3ccc(C(=O)N(C)C)cn3)cs2)cc1C(F)(F)F [Compound 13, N,N-dimethyl-6-(2-(N-(4-(pentyloxy)-3-(trifluoromethyl)phenyl)cyclopropane-carboxamido)thiazol-4-yl)nicotinamide], CCCCCOc1ccc(N(C(=O)C2CC2)c2nc(-c3ccc(CN(C)C)nc3)cs2)cc1C(F)(F)F [Compound 17, N-(4-(6-((dimethylamino)methyl)pyridin-3-yl)thiazol-2-yl)-N-(4-(pentyloxy)-3-(trifluoromethyl)phenyl)cyclopropane-carboxamide] is lower in EC50: over 10 µM for the first, 1 to 10 µM for the second.

CCCCCCOc1ccc(N(C(N)=O)c2nc(-c3ccccn3)cs2)cc1 [Compound 123, 1-(4-(hexyloxy)phenyl)-1-(4-(pyridin-2-yl)thiazol-2-yl)urea] and CCCCCCOc1ccc(N(C(N)=O)c2nc(-c3cccnc3)cs2)cc1 [Compound 145, 1-(4-(hexyloxy)phenyl)-1-(4-(pyridin-3-yl)thiazol-2-yl)urea] cannot be ordered by EC50: under 1 µM for the first, under 1 µM for the second.

CCCCCN(C)c1ccc(N(C(N)=O)c2nc(-c3ccccn3)cs2)cc1C(F)(F)F [Compound 106, 1-(4-(methyl(pentyl)amino)-3-(trifluoromethyl)phenyl)-1-(4-(pyridin-2-yl)thiazol-2-yl)urea] and CCCCCOc1ccc(N(C(N)=O)c2nc(-c3cccnc3C)cs2)cc1C(F)(F)F [Compound 70, 1-(4-(2-methylpyridin-3-yl)thiazol-2-yl)-1-(4-(pentyloxy)-3-(trifluoromethyl)phenyl)urea] cannot be ordered by EC50: under 1 µM for the first, under 1 µM for the second.

CCCCCN(C)c1ccc(N(C(=O)c2cc(C)on2)c2nc(-c3cccnc3)cs2)cc1C(F)(F)F [Compound 52, 5-methyl-N-(4-(methyl(pentyl)amino)-3-(trifluoromethyl)phenyl)-N-(4-(pyridin-3-yl)thiazol-2-yl)isoxazole-3-carboxamide] and CCCCCOc1ccc(N(C(C)=O)c2nc(-c3cccnc3)cs2)cc1C(F)(F)F [Compound 12, N-(4-(pentyloxy)-3-(trifluoromethyl)phenyl)-N-(4-(pyridin-3-yl)thiazol-2-yl)acetamide] cannot be ordered by EC50: under 1 µM for the first, under 1 µM for the second.

CCCCCOc1ccc(N(C=O)c2nc(-c3cccnc3)cs2)cc1C(F)(F)F [Compound 50, N-(4-(pentyloxy)-3-(trifluoromethyl)phenyl)-N-(4-(pyridin-3-yl)thiazol-2-yl)formamide] and CCCCCOc1ccc(N(C(=O)C2CC2)c2nc(-c3cccnc3)cs2)cc1C(F)(F)F [Compound 15, N-(4-(pentyloxy)-3-(trifluoromethyl)phenyl)-N-(4-(pyridin-3-yl)thiazol-2-yl)cyclopropanecarboxamide] cannot be ordered by EC50: under 1 µM for the first, under 1 µM for the second.

CCCCCCCCOc1ccc(N(C(N)=O)c2nc(-c3cccnc3)cs2)cc1 [Compound 72, 1-(4-(octyloxy)phenyl)-1-(4-(pyridin-3-yl)thiazol-2-yl)urea] and CCCCCCCOc1ccc(N(C(=O)C(=O)OC)c2nc(-c3cccnc3)cs2)cc1 [Compound 40, methyl 2-((4-(heptyloxy)phenyl)(4-(pyridin-3-yl)thiazol-2-yl)amino)-2-oxoacetate] cannot be ordered by EC50: under 1 µM for the first, under 1 µM for the second.

C/C=N/N(c1ccc(OCCCCCCCC)cc1)c1nc(-c2cccnc2)cs1 [Compound 190, (E)-2-(2-ethylidene-1-(4-(octyloxy)phenyl)hydrazinyl)-4-(pyridin-3-yl)thiazolo] and CCCCCCCCc1ccc(N(C(=O)C(=O)OC)c2nc(-c3cccnc3)cs2)cc1 [Compound 39, methyl 2-((4-octylphenyl)(4-(pyridin-3-yl)thiazol-2-yl)amino)-2-oxoacetate] cannot be ordered by EC50: under 1 µM for the first, under 1 µM for the second.

CCCCCCCCOc1ccc(N(C(=O)COC(C)=O)c2nc(-c3ccc(F)c(F)c3)cs2)cc1 [Compound 57, 2-((4-(3,4-difluorophenyl)thiazol-2-yl)(4-(octyloxy)phenyl)amino)-2-oxoethyl acetate] and CCCCCCCCOc1ccc(N(C(=O)COC(C)=O)c2nc(-c3ccc(F)cc3)cs2)cc1 [Compound 60, 2-((4-(4-fluorophenyl)thiazol-2-yl)(4-(octyloxy)phenyl)amino)-2-oxoethyl acetate] cannot be ordered by EC50: under 1 µM for the first, under 1 µM for the second.

CCCCCOc1ccc(N(C(=O)C2CC2)c2nc(CN(C)C)cs2)cc1C(F)(F)F [Compound 22, N-(4-((dimethylamino)methyl)thiazol-2-yl)-N-(4-(pentyloxy)-3-(trifluoromethyl)phenyl)cyclopropane-carboxamide] and CCCCCOc1ccc(N(C)c2nc(C(=O)Nc3cccnc3)cs2)cc1C(F)(F)F [Compound 6, 2-(methyl(4-(pentyloxy)-3-(trifluoromethyl)phenyl)amino)-N-(pyridin-3-yl)thiazole-4-carboxamide] fall in the same range of EC50: 1 to 10 µM for the first, 1 to 10 µM for the second.

CCCCCCCCOc1ccc(N(C(N)=O)c2nc(-c3cccnc3)cs2)cc1C(F)(F)F [Compound 130, 1-(4-(octyloxy)-3-(trifluoromethyl)phenyl)-1-(4-(pyridin-3-yl)thiazol-2-yl)urea] and CCCCCCCCOc1ccc(N(C(=O)C(N)=O)c2nc(-c3cccnc3)cs2)cc1C(F)(F)F [Compound 131, N1-(4-(octyloxy)-3-(trifluoromethyl)phenyl)-N1-(4-(pyridin-3-yl)thiazol-2-yl)oxalamide] cannot be ordered by EC50: under 1 µM for the first, under 1 µM for the second.

CCCCCCCCOc1ccc(N(C(=O)NCC(=O)O)c2nc(-c3cccnc3)cs2)cc1C(F)(F)F [Compound 165, 2-(3-(4-(octyloxy)-3-(trifluoromethyl)phenyl)-3-(4-(pyridin-3-yl)thiazol-2-yl)ureido)acetic acid] and CCCCCOc1ccc(N(C(=O)C(=O)OC)c2nc(-c3cccnc3)cs2)cc1F [Compound 27, methyl 2-((3-fluoro-4-(pentyloxy)phenyl)(4-(pyridin-3-yl)thiazol-2-yl)amino)-2-oxoacetate] cannot be ordered by EC50: under 1 µM for the first, under 1 µM for the second.

First: CCCCCOc1ccc(N(C(N)=O)c2nc(-c3cccnc3)c(F)s2)cc1C(F)(F)F [Compound 156, 1-(5-fluoro-4-(pyridin-3-yl)thiazol-2-yl)-1-(4-(pentyloxy)-3-(trifluoromethyl)phenyl)urea]
Second: NCCN(c1ccc(OCCCCc2cccs2)c(C(F)(F)F)c1)c1nc(-c2cccnc2)c(F)s1 [Compound 193, N1-(5-fluoro-4-(pyridin-3-yl)thiazol-2-yl)-N1-(4-(4-(thiophen-2-yl)butoxy)-3-(trifluoromethyl)phenyl)ethane-1,2-diamine]
The EC50 of the first is lower: under 1 µM for the first, 1 to 10 µM for the second.

Compared with CCCCCOc1ccc2c(c1)[nH]c(=O)c(=O)n2-c1nc(-c2cccnc2)cs1 [Compound 128, 6-(pentyloxy)-1-(4-(pyridin-3-yl)thiazol-2-yl)quinoxaline-2,3(1H,4H)-dione], CCCCCCOc1ccc(N(C(N)=O)c2nc(-c3ccc(O)c(C(N)=O)c3)cs2)cc1 [Compound 144, 5-(2-(1-(4-(hexyloxy)phenyl)ureido)thiazol-4-yl)-2-hydroxybenzamide] is lower in EC50: over 10 µM for the first, 1 to 10 µM for the second. The second is the more potent here.

In the case of CCCCCCCCc1ccc(N(C(=O)OCOC(=O)C(N)C(C)C)c2nc(-c3cccnc3)c(F)s2)cc1C(F)(F)F (stereo not shown) [Compound 186, ((5-fluoro-4-(pyridin-3-yl)thiazol-2-yl)(4-octyl-3-(trifluoromethyl)phenyl)carbamoyloxy) methyl 2-amino-3-methylbutanoate], the EC50 is reported as under 1 µM.
